Publication PMC11172311, “Structural and Interactional Analysis of the Flavonoid Pathway Proteins: Chalcone Synthase, Chalcone Isomerase and Chalcone Isomerase-like Protein” (International Journal of Molecular Sciences, 2024)

Experiments:
[1] = target: T1, PvCHS (chalcone synthase) (Panicum virgatum, UniProt A0A8T0PQ54); experiment: X-ray crystal structure (co-crystallization); type: binding
T1 construct: gene PVAP13_8KG261900; full-length with N-terminal His6-tag; residues 8 to 395 of 402 resolved
T1 sequence (A0A8T0PQ54 1-402): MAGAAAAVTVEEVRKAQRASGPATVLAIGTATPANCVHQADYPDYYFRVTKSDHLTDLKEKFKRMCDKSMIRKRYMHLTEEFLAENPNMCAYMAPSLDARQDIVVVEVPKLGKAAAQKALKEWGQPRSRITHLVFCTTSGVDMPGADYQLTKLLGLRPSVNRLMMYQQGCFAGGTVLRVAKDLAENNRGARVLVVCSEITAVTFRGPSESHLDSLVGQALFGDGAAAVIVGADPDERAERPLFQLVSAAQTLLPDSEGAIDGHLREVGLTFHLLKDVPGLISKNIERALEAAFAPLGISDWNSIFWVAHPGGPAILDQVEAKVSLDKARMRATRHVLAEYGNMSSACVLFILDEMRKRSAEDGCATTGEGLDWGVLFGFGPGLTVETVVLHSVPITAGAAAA

[2] = target: T2, PvCHI (chalcone isomerase) (Panicum virgatum, UniProt A0A8T0N7A2); experiment: steady-state kinetics at […] nm; substrate inhibition (Km […], KI […]); type: biochemical
T2 construct: gene PVAP13_9KG390224; recombinant, N-terminal 6×-His tag
T2 sequence (A0A8T0N7A2 1-235): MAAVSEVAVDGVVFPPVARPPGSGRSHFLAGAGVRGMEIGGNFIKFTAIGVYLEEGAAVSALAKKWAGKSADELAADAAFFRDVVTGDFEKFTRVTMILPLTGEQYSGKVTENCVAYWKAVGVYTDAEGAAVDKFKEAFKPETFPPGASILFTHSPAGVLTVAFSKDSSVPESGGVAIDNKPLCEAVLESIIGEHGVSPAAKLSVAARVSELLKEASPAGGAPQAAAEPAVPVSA

[3] = target: T2, PvCHI (chalcone isomerase); experiment: steady-state kinetics with naringenin chalcone as substrate, […] liquiritigenin; type: biochemical
[4] = target: T3, SbCHI (chalcone isomerase, Bmr30) (Sorghum bicolor, UniProt C5WV22); experiment: X-ray crystal structure (binary complex); type: binding
T3 construct: gene SORBI_3001G035600; recombinant SbCHI
T3 sequence (C5WV22 1-231): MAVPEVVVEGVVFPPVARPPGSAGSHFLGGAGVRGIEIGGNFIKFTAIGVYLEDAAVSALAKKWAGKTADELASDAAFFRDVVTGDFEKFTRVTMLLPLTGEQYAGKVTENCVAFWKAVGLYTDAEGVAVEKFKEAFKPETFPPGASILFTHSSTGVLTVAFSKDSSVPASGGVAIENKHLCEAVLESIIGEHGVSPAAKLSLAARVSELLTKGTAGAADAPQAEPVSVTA

[5] = target: T1, PvCHS (chalcone synthase); experiment: X-ray crystal structure (co-crystallization, ternary complex with CoA); type: binding

Q: How did the “X-ray crystal structure (co-crystallization)” value [1] turn out when CC(C)(COP(=O)(O)OP(=O)(O)OC[C@H]1O[C@@H](n2cnc3c(N)ncnc32)[C@H](O)[C@@H]1OP(=O)(O)O)[C@@H](O)C(=O)NCCC(=O)NCCS [CoA] was run?
A: The value was “The electron density corresponding to an extended CoA molecule (Figure 2B) along a continuous tunnel”.

Q: With O=C(/C=C/c1ccc(O)cc1)c1ccc(O)cc1O [isoliquiritigenin] as the molecule, how does the Ki [2] read?
A: The Ki was 11.2 µM.

Q: Which results are given for O=C1C[C@@H](c2ccc(O)cc2)Oc2cc(O)ccc21 [liquiritigenin]?
A: Ki [3]: 0.285 µM; X-ray crystal structure (binary complex) [4]: the electron density corresponding to liquiritigenin that had been added to the crystallization buffer was clearly identified

Q: For O=C1C[C@@H](c2ccc(O)cc2)Oc2cc(O)cc(O)c21 [naringenin], which “X-ray crystal structure (co-crystallization, ternary complex with CoA)” value [5] is on record?
A: The value was “one naringenin molecule was visible in the concave pocket established at the interface between two PvCHS dimers”.
